This passage reports melting point, inhibition and IC50 results from patent publication US6423716B1, “Nitrogenous heterocyclic compounds” (Kyowa Hakko Kogyo Co., Ltd., priority 1998, dated 2002).

One data set deals with T1, human β-PDGF receptor (Homo sapiens, UniProt P09619).
T1 construct: expressed in transfected cells; host or cells: Chinese hamster ovary (CHO) cells
Kind of data set: PDGF receptor phosphorylation inhibition test. Format: cell-based. The conditions noted are these: for inhibition at 10 µM: CHO cells expressing human β-PDGF receptor, test compound at 10 μM; for IC50: CHO cells expressing human β-PDGF receptor cDNA, concentration inhibiting 50% of PDGF receptor phosphorylation. How it is done: PDGF Receptor Phosphorylation Inhibition Test
This test was carried out according to the process disclosed in a literature [J. Biol. Chem., 266: 413-418 (1991)]. In this case, Chinese hamster ovary (CHO) cells to which human β-PDGF receptor cDNA had been inserted and in which it had been expressed were used in the test.

In general, melting point refers to the temperature of the solid-liquid transition. A word on the inhibition: it is how much of the control response was suppressed. Low readings indicate a response near the control, high ones a response far below the control. By IC50 is commonly meant the midpoint of a concentration-inhibition curve. A low value points to greater potency in that assay.

T1 sequence (P09619 33-1106): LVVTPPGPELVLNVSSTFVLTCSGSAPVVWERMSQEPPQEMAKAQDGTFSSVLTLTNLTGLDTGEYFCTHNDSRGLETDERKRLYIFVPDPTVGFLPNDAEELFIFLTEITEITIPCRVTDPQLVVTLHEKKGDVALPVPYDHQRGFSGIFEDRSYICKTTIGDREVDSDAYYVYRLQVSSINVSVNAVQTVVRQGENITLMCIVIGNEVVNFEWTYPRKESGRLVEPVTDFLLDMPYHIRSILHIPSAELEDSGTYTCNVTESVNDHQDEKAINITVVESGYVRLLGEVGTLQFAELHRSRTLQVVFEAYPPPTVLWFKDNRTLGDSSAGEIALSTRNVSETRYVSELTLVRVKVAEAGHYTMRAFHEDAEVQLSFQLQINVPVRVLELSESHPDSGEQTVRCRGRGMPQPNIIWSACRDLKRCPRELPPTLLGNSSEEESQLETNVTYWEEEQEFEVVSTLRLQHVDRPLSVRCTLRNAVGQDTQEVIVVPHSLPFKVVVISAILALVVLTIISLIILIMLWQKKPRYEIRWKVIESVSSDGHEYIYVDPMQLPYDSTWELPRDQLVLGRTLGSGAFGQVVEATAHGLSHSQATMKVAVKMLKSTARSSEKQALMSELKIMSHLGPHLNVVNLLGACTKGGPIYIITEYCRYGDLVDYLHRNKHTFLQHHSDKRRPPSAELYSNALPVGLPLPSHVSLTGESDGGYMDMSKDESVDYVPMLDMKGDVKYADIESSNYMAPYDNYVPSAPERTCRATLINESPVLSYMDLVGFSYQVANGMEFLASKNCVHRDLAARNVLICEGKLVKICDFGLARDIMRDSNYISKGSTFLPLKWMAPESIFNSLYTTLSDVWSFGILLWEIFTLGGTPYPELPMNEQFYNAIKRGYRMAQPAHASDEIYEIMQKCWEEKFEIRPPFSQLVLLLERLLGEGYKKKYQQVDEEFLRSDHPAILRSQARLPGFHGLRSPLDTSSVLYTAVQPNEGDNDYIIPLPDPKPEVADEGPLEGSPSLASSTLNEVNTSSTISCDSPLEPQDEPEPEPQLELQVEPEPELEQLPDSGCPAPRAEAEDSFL

The compound `Cn1ncc2c(N3CCN(C(=O)Nc4ccc(Oc5ccccc5)cc4)CC3)ncnc21` had a melting point of 155 to 156 °C.

On to `Cn1ncc2c(N3CCN(C(=S)NCc4cccnc4)CC3)ncnc21`, for which the melting point fell in the range of 210 to 211 °C. Still for that read-out and setting: to `Cn1ncc2c(N3CCN(C(=S)NCc4ccccc4)CC3)ncnc21` belongs 175 to 176 °C; to `Cl.Cl.S=C(NCc1cccnc1)N1CCN(c2ncnc3c2cnn3-c2ccccc2)CC1`, 160 to 163 °C.

With `O=C(Nc1ccc([N+](=O)[O-])cc1)N1CCN(c2ncnc3nc[nH]c23)CC1`, the melting point was 270 to 275 °C (dec.). The same measure, in the same setting: to `Cl.Cl.S=C(NCc1cccnc1)N1CCN(c2ncnc3nc[nH]c23)CC1` belongs 178 to 185 °C; to `Nc1nc(N2CCN(C(=O)Nc3ccc([N+](=O)[O-])cc3)CC2)c2[nH]cnc2n1`, 208 to 214 °C; to `Cl.Cl.Nc1nc(N2CCN(C(=S)NCc3cccnc3)CC2)c2[nH]cnc2n1`, 180 to 185 °C (dec.). As to `Cn1cnc2c(N3CCN(C(=O)Nc4ccc(Oc5ccccc5)cc4)CC3)ncnc21`, the melting point was in the range of 168 to 169 °C. Still for that read-out and setting: to `O=C(Nc1ccc(Oc2ccccc2)cc1)N1CCN(c2ncnc3nc[nH]c23)CC1` [Compound 1, N-(4-Phenoxyphenyl)-4-(6-purinyl)-1-piperazinecarboxamide] belongs 250 to 251 °C; to `S=C(NCc1ccccc1)N1CCN(c2ncnc3nc[nH]c23)CC1` [Compound 3, N-Benzyl-4-(6-purinyl)-1-piperazinethiocarboxamide], 255 to 260 °C; to `Nc1nc(N2CCN(C(=O)Nc3ccc(Oc4ccccc4)cc3)CC2)c2[nH]cnc2n1` [Compound 5, 4-(2-Amino-6-purinyl)-N-(4-phenoxyphenyl)-1-piperazinecarboxamide], 244 to 258 °C.

The compound `Nc1nc(N2CCN(C(=S)NCc3ccccc3)CC2)c2[nH]cnc2n1` [Compound 7, 4-(2-Amino-6-purinyl)-N-benzyl-1-piperazinethiocarboxamide] gave a melting point of 242 to 245 °C. Turning to `Cc1nn(C)c2ncc(C(N)=O)c(N3CCN(C(=O)Nc4ccc(Oc5ccccc5)cc4)CC3)c12` [Compound 12, 4-(5-Carbamoyl-1,3-dimethyl-4-1H-pyrazolo[3,4-b]pyridyl)-N-(4-phenoxyphenyl)-1-piperazinecarboxamide], the melting point was 248 to 250 °C. Turning to `O=C(Nc1ccc(Oc2ccccc2)cc1)N1CCN(c2ncnc3ncccc23)CC1` [Compound 20, N-(4-Phenoxyphenyl)-4-(4-pyrido[2,3-d]pyrimidinyl)-1-piperazinecarboxamide], the melting point lay within 104 to 106 °C. Same read-out and setting: to `S=C(NCc1ccccc1)N1CCN(c2ncnc3ncccc23)CC1` [Compound 21, N-Benzyl-4-(4-pyrido[2,3-d]pyrimidinyl)-1-piperazinethiocarboxamide] belongs 169 to 170 °C. The compound `O=C(Nc1ccc(Oc2ccccc2)cc1)N1CCN(c2ncnc3cnc(F)cc23)CC1` [Compound 22, N-(4-Phenoxyphenyl)-4-(6-fluoro-4-pyrido[3,4-d]pyrimidinyl)-1-piperazinecarboxamide] displayed an inhibition at 10 µM at human β-PDGF receptor of 66%. Compound `COc1cc2ncnc(N3CCN(C(=NC#N)NCc4ccc(Cl)cc4)CC3)c2cc1OC` [Compound 31, N-(4-Chlorobenzyl)-N′-cyano-4-(6,7-dimethoxy-4-quinazolinyl)-1-piperazinecarboxamidine] yielded an IC50 against human β-PDGF receptor of 0.38 µM. On the same count and under the same terms, to `COc1cc2ncnc(N3CCN(C(=NC#N)NCc4ccc5c(c4)OCO5)CC3)c2cc1OC` [Compound 41, N′-Cyano-4-(6,7-dimethoxy-4-quinazolinyl)-N-(3,4-methylenedioxybenzyl)-1-piperazinecarboxamidine] belongs 0.19 µM. For the compound `COc1cc2ncnc(N3CCN(C(NCc4cccc(Cl)c4)=C(C#N)C#N)CC3)c2cc1OC` [Compound 51, 4-{4-[1-(3-Chlorobenzylamino)-2,2-dicyanovinyl]-1-piperazinyl}-6,7-dimethoxyquinazoline], at 10 µM the inhibition against human β-PDGF receptor was 82%. At human β-PDGF receptor, `COc1ccc(CNC(=C(C#N)C#N)N2CCN(c3ncnc4cc(OC)c(OC)cc34)CC2)cc1` [Compound 53, 4-{4-[2,2-Dicyano-1-(4-methoxybenzylamino)vinyl]-1-piperazinyl}-6,7-dimethoxyquinazoline] came in with an inhibition at 10 µM of 87%. `COc1cc2ncnc(N3CCN(C(SC)=C(C#N)C#N)CC3)c2cc1OC` [Compound 64, 4-[4-(2,2-Dicyano-1-methylthiovinyl)-1-piperazinyl]-6,7-dimethoxyquinazoline]: at 10 µM the inhibition against human β-PDGF receptor was 82%.

In the case of `COc1cc2ncnc(N3CCN(C(=NC#N)Oc4ccccc4)CC3)c2cc1OC` [Compound 67, N-Cyano-4-(6,7-dimethoxy-4-quinazolinyl)-1-piperazinecarboximidic acid phenyl ester], 10 µM produced 95% inhibition against human β-PDGF receptor.
